Legend:
[1] = target: androgen receptor mutant W741C (Homo sapiens (Human), UniProt P10275, W742C); test: Transactivation assay for the androgen receptor mutant W741C (transfected PC-3 cells); assay type: cell-based; conditions: in the presence of 1×10^−10 M R1881, 24 hours
Protocol: PC-3 cells (Kaighn et al., Invest. Urol. 17: 16-23, 1979) were plated out at a density of 10000 cells per well of a 96-well cell culture plate in RMPI 1640 medium (F1235, Biochrom AG, Berlin, Germany), which contained activated charcoal-treated calf serum (FCS Serum Gold, PAA Laboratories) at a concentration of 5% (v/v). On the next day the cells were transiently transfected with the pSG5-vector (#216201 Stratagene), which contained the sequence of the androgen receptor mutant W741C (Haapala et al., Lab Invest. 81(12): 1647-51, 2001), and with a reporter plasmid based on pGL4.14 (#E6691, Promega) with the luciferase-gene (from Photinus pyralis) under the control of the MMTV promoter (Cato et al., EMBO J. 6: 363-8, 1987). The cells were treated with the test substances in concentrations from 1×10^−8 to 1×10^−10 M in the presence of 1×10^−10 M R1881 and were incubated overnight at 37° C. and 5% CO2. After 24 hours, 100 μl of Steady Glo Lysis and Detection reagent (E2550, Promega) was added per well and the luminescence was read in a Victor3 Luminometer (PerkinElmer) for 1 second per well. The luminescence values obtained were normalized, wherein 100% corresponded to the effect of the unstimulated control (without R1881), and 0% corresponded to the effect of the stimulated control (R1881 plus DMSO instead of test substance). The IC50 value was determined by regression analysis based on a four-parameter equation (minimum, maximum, IC50, Hill coefficient; Y=Max+(Min−Max)/(1+(X/IC50)^Hill)).

LAPC-4 cells = test: Proliferation assay with LAPC-4 cells; assay type: cell-based; conditions: Homo sapiens, LAPC4, 168 h; in the presence of 1×10^−9 M R1881, seven days, AlamarBlue; read-out: IC50 LAPC-4 cell proliferation
Protocol: LAPC-4 cells (Klein et al., Nat Med. 3(4): 402-8, 1997) were plated out at a density of 4000 cells per well of a 96-well cell culture plate in RMPI 1640 medium (F1275, Biochrom AG) that contained activated charcoal-treated calf serum (FCS Serum Gold, PAA Laboratories) at a concentration of 10% (v/v). On the next day the cells were treated with the test substances in concentrations from 1×10^−8 to 1×10^−10 M in the presence of 1×10^−9 M R1881. Cell proliferation was determined seven days later after incubation for 2 hours with AlamarBlue (DAL1100, Invitrogen) (Nakayama et al., J Immunol Methods, 204(2): 205-8, 1997). The fluorescence values obtained were normalized, wherein 100% corresponded to the effect of the unstimulated control (without R1881), and 0% corresponded to the effect of the stimulated control (R1881 plus DMSO instead of test substance). The IC50 value was determined by regression analysis based on a four-parameter equation (minimum, maximum, IC50, Hill coefficient; Y=Max+(Min−Max)/(1+(X/IC50)^Hill)).

[2] = system: human uterine leiomyoma xenografts; test: Growth of human xenografts from leiomyoma tissue in immunodeficient mice; assay type: in vivo, mouse
Protocol: The growth-inhibiting action of inhibitors of the androgen receptor was tested in a xenograft animal model with subcutaneously transplanted tissue fragments from human leiomyomas.
Human uterine leiomyoma tissue was derived from surgery, in which, based on the diagnosis, either a hysterectomy or a myomectomy was carried out. The uterine leiomyomas (UL) were then prepared free either from the removed uterus or by myomectomy in situ; in the last-mentioned method, the myomas were removed whole or by morcellation from the abdominal cavity.
The prepared myomas were then immediately put in a suitable sterile buffer (Vitron V7 Buffer (U.S. Pat. No. 5,328,821) or Viaspan organ transplant buffer) at 4° C. for further transport. Then, on a sterile bench with constant moistening, the UL tissue was cut into small blocks with 2×2×2 mm or 2×4×4 mm edge lengths, and the pieces of tissue were stored in a cell culture dish in PBS at room temperature until transplantation (M Fritsch et al. 2010, ISGE abstract & presentation).
Immunodeficient mice (ICR SCID, CB17 SCID, ICR-Hrhr SCID or SCID beige mice) were ovariectomized at the age of 6-8 weeks (OVX). At the earliest one week after OVX, pellets releasing 17β-estradiol (E2, 0.05 mg/90 d, Innovative Research of America, catalogue number NE-121) and progesterone (P, 25 mg/60 d, Innovative Research of America, catalogue number SP-131) (Innovative Research of America, Sarasota, Fla./USA) were transplanted into the neck region of the animals. Alternatively, the animals can be given replacement therapy with other implants or methods that ensure continuous release of the hormones 17β-estradiol and progesterone. […]
UL tissue in situ was as a rule characterized by an excessive synthesis and accumulation of proteins of the extracellular matrix, and by increased cell proliferation. […] If specific mechanisms of action of the test substances were known or presumed, in addition the cell proliferation and/or the proportion of the extracellular matrix were determined by histological staining. […]

Sequence of androgen receptor mutant W741C (P10275 whole entry W742C): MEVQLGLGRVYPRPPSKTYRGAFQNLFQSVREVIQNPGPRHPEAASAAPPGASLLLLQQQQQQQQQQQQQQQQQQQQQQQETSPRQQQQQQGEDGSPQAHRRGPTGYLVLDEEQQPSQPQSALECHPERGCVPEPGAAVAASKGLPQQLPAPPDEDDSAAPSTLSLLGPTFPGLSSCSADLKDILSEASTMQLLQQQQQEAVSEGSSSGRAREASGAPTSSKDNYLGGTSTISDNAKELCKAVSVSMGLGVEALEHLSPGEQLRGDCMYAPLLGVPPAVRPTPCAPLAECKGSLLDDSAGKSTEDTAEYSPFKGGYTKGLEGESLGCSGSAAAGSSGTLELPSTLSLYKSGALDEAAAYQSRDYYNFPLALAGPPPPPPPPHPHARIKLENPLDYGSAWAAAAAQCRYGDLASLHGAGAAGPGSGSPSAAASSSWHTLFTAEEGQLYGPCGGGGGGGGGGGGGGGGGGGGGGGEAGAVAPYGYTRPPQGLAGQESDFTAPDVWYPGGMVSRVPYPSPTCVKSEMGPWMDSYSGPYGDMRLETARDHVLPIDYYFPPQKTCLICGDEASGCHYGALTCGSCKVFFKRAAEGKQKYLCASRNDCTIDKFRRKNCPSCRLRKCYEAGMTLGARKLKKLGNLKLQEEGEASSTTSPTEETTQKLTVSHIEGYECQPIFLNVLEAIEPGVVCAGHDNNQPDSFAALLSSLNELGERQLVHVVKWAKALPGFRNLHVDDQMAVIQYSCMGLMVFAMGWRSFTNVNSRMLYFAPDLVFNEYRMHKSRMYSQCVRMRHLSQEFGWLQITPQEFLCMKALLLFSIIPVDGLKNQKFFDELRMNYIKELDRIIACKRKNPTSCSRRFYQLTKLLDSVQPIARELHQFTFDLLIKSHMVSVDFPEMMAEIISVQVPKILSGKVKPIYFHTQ

IC50 [1]: 30 nM
Structure (SMILES): N#Cc1cccc2c(O[C@H]3CC[C@H](NC(=O)c4cccc(F)c4)CC3)ccnc12 [Example 23, N-{trans-4-[(8-cyanoquinolin-4-yl)oxy]cyclohexyl}-3-fluorobenzamide]
IC50 (LAPC-4 cells): 86 nM | inhibition of the growth of uterine leiomyoma xenografts ([2]; 70 mg/kg/d, in 3 out of 4 independent experiments with tissue from different donors): significant inhibition | average inhibition of the normalized xenograft growth over the transplantation weight on day 0 ([2]; dose of 25 mg/kg/d): −24% | average inhibition of the normalized xenograft growth over the transplantation weight on day 0 ([2]; dose of 70 mg/kg/d): −59%

— patent publication US9428460B2, “N-[4-(quinolin-4-yloxy)cyclohexyl(methyl)](hetero)arylcarboxamides as androgen receptor antagonists, production and use thereof as medicinal products” (BAYER PHARMA AKTIENGESELLSCHAFT, priority 2012, dated 2016)
